Tested on: longitudinal muscle with adherent myenteric plexus preparation
Assay: Gastrointestinal motility promoting action: increase of electrically induced twitch response of isolated guinea pig ileum
Assay type: cell-based, guinea pigs
Conditions: compound at 10⁻⁵ M, transmural electrical stimulation (1 msec, 0.1 Hz)
Method: The gastrointestinal motility promoting action of the present compounds was tested by the following method.
Ileum was excised from guinea pigs to prepare longitudinal muscle with adherent myenteric plexus preparation (approximately 2 cm length). The preparation suspended in organ bath containing Krebs-Henselite solution aerated with a mixed gas (5% CO₂, 95% O₂) were subjected to transmural electrical stimulation (1 msec, 0.1 Hz). Consistent twitch response induced by electrical stimulation and increase of twitch response induced by compound were recorded with an isometric transducer. The compounds were dissolved in distilled water or DMSO and tested at concentration of 10⁻⁵ M. The result is shown in terms of percent increase (%) in the contraction height by the electrical stimulation after administration of the compound relative to the contraction height before administration of the compound. Compound of Example 10 16.1% Compound of Example 29 22.4%

SMILES	percent increase (%) in the contraction height by the electrical stimulation after administration of the compound relative to the contraction height before administration of the compound [%]
CC(C)=CCn1nc(C(=O)NC2CC3COCC(C2)N3Cc2ccc(F)cc2)c2ccccc21 (stereo not drawn) [Example 10, N-[endo-9-(p-fluorobenzyl)-3-oxa-9-azabicyclo[3.3.1]non-7-yl]-1-(3-methyl-2-butenyl)indazole-3-carboxamide]	16.1
COc1cc(N)c(Cl)cc1C(=O)NC1CC2COCC(C1)N2Cc1ccc(F)cc1 (stereo not drawn) [Example 29, N-[endo-9-(p-fluorobenzyl)-3-oxa-9-azabicyclo[3.3.1]non-7-yl]-4-amino-5-chloro-2-methoxybenzamide]	22.4

— EP0623621A1, “Oxazabicyclo derivatives and their use as 5-HT4 receptor agonists” (NISSHIN FLOUR MILLING CO., LTD., priority 1993, dated 1994)
